# Laboratory results as given in patent US20150273076A1, “SP1 POLYPEPTIDES, MODIFIED SP1 POLYPEPTIDES AND USES THEREOF” (Fulcrum SP Ltd., priority 2006, published 2015).
# What was measured:
# [1] = mouse, in vivo, iv
# Experimental: C57B1 male mice bearing the B16-F10 (B16) melanoma tumor were divided into three groups: Group A-injected once (iv with fluoresceinamine-SP1 conjugate (10 mg/ml, 0.1 ml per mouse), n=5 mice;
# Group B-injected once with unconjugated fluoresceinamine solution (34 mM in PBS, 0.1 ml per animal); n=5 mice; and Group C received no treatment. n=2 mice. Internal organs were harvested 24 hours post injection, and stored at 70° C. Blood was collected and left at room temperature to coagulate. Tumor extracts and serum samples were analyzed on SDS PAGE, and proteins were blotted onto nitrocellulose. Immunodetection of SP1 was with rabbit anti SP1 and HRP-conjugated second antibody.
# B16-F10 (B16) melanoma tumor C57B1 male mice bearing the B16-F10 (B16) melanoma tumor were prepared and cared for as described by Kalechman (Int J Cancer 2000; 86:281-8). B16F10 melanoma cells (5×10^5 or 5×10^6 cells/mouse) were injected into the lateral tail vein of the mice and the presence of cancer tumors was evaluated at day 14 following melanoma cell injection by an overall view of the mouse and/or histopathology examinations. […]
# SP1 = assay: Vinblastine binding to SP1 by intrinsic tryptophan fluorescence; set-up: species or system Populus tremula; details: native SP1; 80 μM Vinblastine shifts maximal emission to 356 nm
# Experimental: FIG. 23 is a graph showing the complex formation of the drug Vinblastine to SP1. Left panel-emission spectra (excitation wavelength=286.00 nm) of pure SP1 (48 μM in MES) was determined using a fluorometer. Both native (left curves) and unfolded (6M Guanidinum HCl)(right curves) SP1 were tested. The net effect of Vinblastine on Tryptophan fluorescence of native protein was calculated by subtracting the relative quenching by the unfolded protein from those of the native protein at the respective maximal emission wavelength (340 nm and 321 nm respectively). Note that the tryptophan fluorescence of both the folded and unfolded SP1 protein is quenched by Vinblastine complexing, but in the case of the folded protein is also accompanied by a red shift);
# Vinblastine, a vinca alkaloid, is mainly useful for treating Hodgkin's disease, lymphocytic lymphoma, histiocytic lymphoma, advanced testicular cancer, advanced breast cancer, Kaposi's sarcoma. Vinblastine binding to SP1, was determined by Intrinsic Tryptophan fluorescence measurements.
# SP1 has only one Tryptophan residue (Trp 48). […] Unfolded protein fluorescence is also quenched by Vinblastine (FIG. 23), but unlike the native protein it is not accompanied by red shift. Thus, folded SP1-Vinblastine association can be detected, and quantified by changes in its Intrinsic Tryptophan fluorescence.
SMILES,clearance from circulation [1],effect on SP1 tryptophan fluorescence (SP1)
Nc1ccc2c(c1)C(=O)OC21c2ccc(O)cc2Oc2cc(O)ccc21 [Fluoresceinamine],rapidly cleared,
CC[C@]1(O)C[C@@H]2CN(CCc3c([nH]c4ccccc34)[C@@](C(=O)OC)(c3cc4c(cc3OC)N(C)[C@H]3[C@@](O)(C(=O)OC)[C@H](OC(C)=O)[C@]5(CC)C=CCN6CC[C@]43[C@@H]65)C2)C1 [Vinblastine],,fluorescence quenching accompanied by a red shift
